From PMC10376420, “Antioxidant, Antidiabetic, and Anti-Obesity Properties of Apple Pulp Extracts (Malus domestica Bork): A Comparative Study of 15 Local and Commercial Cultivars from Spain” (Biology, 2023)
Values after ≈ are worked out from the molar mass of the structure shown.

Biological target: T1, α-glucosidase from Saccharomyces cerevisiae
T1 construct: gene MAL12
Test: pNPG hydrolysis, absorbance […] nm
Format: biochemical
Settings: substrate pNPG (50 uL of 3 mM in 200 uL), 37 °C

IC50: 2.98 ± 0.40 µg/mL (≈ 9.86 µM)
SMILES: O=c1c(O)c(-c2ccc(O)c(O)c2)oc2cc(O)cc(O)c12 [Quercetin]
